Patent publication US20250296959A1, “B7-H3 TARGETING PEPTIDES AND CONSTRUCTS THEREOF” (Mariana Oncology Inc., priority 2024, published 2025)
Starred links: 1 amine or outer side, 2 acyl side, 3 side chain; linkers in the order of their positions; H or OH if unused. Positions of bridges follow the written chain, without caps; N, C: chain ends. Non-standard residues stand in square brackets, D forms with d. Residues, ends and D or L forms follow the SMILES beside them. Groups on a side chain read outwards from the residue. *: point of attachment. Ala(1-CH2CO2H-4-piperidyl) = N[C@@H](CC1CCN(CC(=O)O)CC1)C(=O)O; Ala(piperidin-4-yl) = O=C([C@H](CC1CCN([*:3])CC1)N[*:1])[*:2]; DOTA = O=C(O)CN1CCN(CC(=O)O)CCN(CC(=O)*)CCN(CC(=O)O)CC1; Phe(4-COOH) = N[C@@H](Cc1ccc(C(=O)O)cc1)C(=O)O; Trp(5-F) = N[C@@H](Cc1c[nH]c2ccc(F)cc12)C(=O)O; X1 = C[C@@H](c1ccccc1)[C@H](N[*:1])C(=O)[*:2]; Lys(Me3) = C[N+](C)(C)CCCC[C@H](N)C(=O)O; 1Nal = N[C@@H](Cc1cccc2ccccc12)C(=O)O; Ala(4-THP) = N[C@@H](CC1CCOCC1)C(=O)O; AEF = NCCOc1ccc(C[C@H](N)C(=O)O)cc1; Val(3-OH) = CC(C)(O)[C@H](N)C(=O)O; NMeF = CN[C@@H](Cc1ccccc1)C(=O)O; 4Pal = N[C@@H](Cc1ccncc1)C(=O)O; Aad = N[C@@H](CCCC(=O)O)C(=O)O; PEG4 = NCCOCCOCCOCCOCCC(=O)O; Tle = CC(C)(C)[C@H](N)C(=O)O; hLeu = CC(C)CC[C@H](N)C(=O)O; Nle = CCCC[C@H](N)C(=O)O; Dab = NCC[C@H](N)C(=O)O; Dap = NC[C@H](N)C(=O)O; Sar = CNCC(=O)O

Target: T1, human 4lg B7-H3 (Homo sapiens, UniProt Q5ZPR3)
T1 sequence (Q5ZPR3 29-534): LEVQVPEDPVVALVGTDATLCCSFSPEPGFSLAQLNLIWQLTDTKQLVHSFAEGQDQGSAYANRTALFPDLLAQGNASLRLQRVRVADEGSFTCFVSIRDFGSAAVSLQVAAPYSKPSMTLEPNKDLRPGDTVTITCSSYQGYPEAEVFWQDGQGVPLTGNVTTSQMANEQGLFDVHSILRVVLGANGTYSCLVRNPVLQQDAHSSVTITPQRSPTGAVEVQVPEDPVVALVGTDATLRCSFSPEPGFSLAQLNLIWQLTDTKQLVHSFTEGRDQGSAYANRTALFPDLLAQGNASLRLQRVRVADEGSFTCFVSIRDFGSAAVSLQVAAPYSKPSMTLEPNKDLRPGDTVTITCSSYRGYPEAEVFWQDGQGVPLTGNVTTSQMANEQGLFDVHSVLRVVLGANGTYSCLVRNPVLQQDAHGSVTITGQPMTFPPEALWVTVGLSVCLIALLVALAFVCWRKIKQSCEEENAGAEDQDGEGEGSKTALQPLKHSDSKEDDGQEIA
Assay: Affinity determination by surface plasmon resonance (SPR) to 4Ig B7-H3
Conditions: 4Ig B7-H3

[1] = SPR KD—25° C., 25° C. flow cell temperature
[2] = SPR KD—37° C., 37° C. flow cell temperature

| SMILES | Kd [1] | Kd [2] |
| --- | --- | --- |
| CCCC[C@H](NC(C)=O)C(=O)N[C@@H](Cc1ccc(O)cc1)C(=O)N[C@H]1CSSC[C@@H](C(=O)N[C@@H](Cc2c[nH]c3ccccc23)C(=O)N[C@@H](Cc2ccccc2)C(=O)N[C@H](C(=O)N[C@H](CCCCNC(=O)CN2CCN(CC(=O)O)CCN(CC(=O)O)CCN(CC(=O)O)CC2)C(N)=O)[C@@H](C)O)NC(=O)[C@H](Cc2ccc(O)cc2)NC(=O)[C@H](C(C)C)NC(=O)[C@H](CC(=O)O)NC(=O)[C@H](Cc2ccncc2)NC(=O)[C@H](CCCCN)NC(=O)CNC(=O)[C@H](C(C)C)NC1=O [compound 58, Ac-Nie-Y-C-V-G-K-4PyA-D-V-Y-C-W-F-Thr-dLys(DOTA)-CONH2] (Ac-[Nle]YCVGK[4Pal]DVYCWFT[dK](DOTA)-NH2; disulfide 3-11) | 1 to 10 nM |  |
| CCCC[C@H](NC(=O)[C@H](Cc1c[nH]c2ccc(F)cc12)NC(=O)[C@@H]1CSSC[C@H](NC(=O)[C@H](Cc2ccc(O)cc2)NC(=O)[C@H](CCC(C)C)NC(C)=O)C(=O)N[C@@H](C(C)(C)C)C(=O)NCC(=O)N[C@@H](CCCCN)C(=O)N[C@@H](CC2CCOCC2)C(=O)N[C@@H](CC(=O)O)C(=O)N[C@@H](C(C)C)C(=O)N[C@@H](Cc2ccc(O)cc2)C(=O)N1)C(=O)N[C@H](C(=O)N[C@H](CCCCNC(=O)CN1CCN(CC(=O)O)CCN(CC(=O)O)CCN(CC(=O)O)CC1)C(=O)O)[C@@H](C)O [compound 333, Ac-hLeu-Y-C-Tbg-G-K-ThpA-D-V-Y-C-5FW-Nle-Thr-dLys(DOTA)-COOH] (Ac-[hLeu]YC[Tle]GK[Ala(4-THP)]DVYC[Trp(5-F)][Nle]T[dK](DOTA)-OH; disulfide 3-11) | 10 to 100 nM |  |
| CC(=O)N[C@@H](CCC(C)C)C(=O)N[C@@H](Cc1ccc(O)cc1)C(=O)N[C@H]1CSSC[C@@H](C(=O)N[C@@H](Cc2c[nH]c3ccc(F)cc23)C(=O)N[C@@H](Cc2ccccc2)C(=O)N[C@H](C(=O)N[C@H](CCCCNC(=O)CN2CCN(CC(=O)O)CCN(CC(=O)O)CCN(CC(=O)O)CC2)C(=O)O)C(C)(C)O)NC(=O)[C@H](Cc2ccc(O)cc2)NC(=O)[C@H](C(C)C)NC(=O)[C@H](CC(=O)O)NC(=O)[C@H](CC2CCOCC2)NC(=O)[C@H](CN)NC(=O)CNC(=O)[C@H](C(C)(C)C)NC1=O [compound 372, Ac-hLeu-Y-C-Tbg-G-Dap-ThpA-D-V-Y-C-5FW-F-hydroxyVal-dLys(DOTA)-COOH] (Ac-[hLeu]YC[Tle]G[Dap][Ala(4-THP)]DVYC[Trp(5-F)]F[Val(3-OH)][dK](DOTA)-OH; disulfide 3-11) |  | < 1 nM |
| CC(=O)N[C@@H](CCC(C)C)C(=O)N[C@@H](Cc1ccc(O)cc1)C(=O)N[C@H]1CSSC[C@@H](C(=O)N[C@@H](Cc2c[nH]c3ccc(F)cc23)C(=O)N[C@@H](Cc2ccccc2)C(=O)N2CCC[C@H]2C(N)=O)NC(=O)[C@H](Cc2ccc(O)cc2)NC(=O)[C@H](C(C)C)NC(=O)[C@H](CC(=O)O)NC(=O)[C@H](Cc2ccc(OCCNC(=O)CN3CCN(CC(=O)O)CCN(CC(=O)O)CCN(CC(=O)O)CC3)cc2)NC(=O)[C@H](CC2CCNCC2)NC(=O)CNC(=O)[C@H](C(C)C)NC1=O [compound 301, Ac-hLeu-Y-C-V-G-PipAla-AEF(DOTA)-D-V-Y-C-5FW-F-Pro-CONH2] (Ac-[hLeu]YCVG[Ala(piperidin-4-yl)][AEF](DOTA)DVYC[Trp(5-F)]FP-NH2; disulfide 3-11) | < 1 nM |  |
| CC(=O)N[C@@H](CCC(C)C)C(=O)N[C@@H](Cc1ccc(O)cc1)C(=O)N[C@H]1CSSC[C@@H](C(=O)N[C@@H](Cc2c[nH]c3ccc(F)cc23)C(=O)N[C@H](C(=O)N[C@H](C(=O)N[C@H](C)C(=O)O)C(C)(C)O)[C@@H](C)c2ccccc2)NC(=O)[C@H](Cc2ccc(O)cc2)NC(=O)[C@H](C(C)C)NC(=O)[C@H](CC(=O)O)NC(=O)[C@H](CC2CCN(C(=O)CCOCCOCCOCCOCCNC(=O)CN3CCN(CC(=O)O)CCN(CC(=O)O)CCN(CC(=O)O)CC3)CC2)NC(=O)[C@H](CCCC[N+](C)(C)C)NC(=O)CNC(=O)[C@H](C(C)(C)C)NC1=O [compound 522, Ac-hLeu-Y-C-Tbg-G-Lys(Me)3-Pip(PEG4-DOTA)Ala-D-V-Y-C-5FW-[(2S, 3S)beta-Me-Phe]-hydroxyVal-dAla-COOH] (Ac-[hLeu]YC[Tle]G[Lys(Me3)][Ala(piperidin-4-yl)]([PEG4-DOTA])DVYC[Trp(5-F)][X1][Val(3-OH)][dA]-OH; disulfide 3-11) |  | < 1 nM |
| CC(=O)N[C@@H](CCC(C)C)C(=O)N[C@@H](Cc1ccc(O)cc1)C(=O)N[C@H]1CSSC[C@@H](C(=O)N[C@@H](Cc2c[nH]c3ccc(F)cc23)C(=O)N[C@H](C(=O)N[C@H](C(=O)N[C@H](CCCCNC(=O)[C@H](CCCC(=O)O)NC(=O)CN2CCN(CC(=O)O)CCN(CC(=O)O)CCN(CC(=O)O)CC2)C(=O)O)C(C)(C)O)[C@@H](C)c2ccccc2)NC(=O)[C@H](Cc2ccc(O)cc2)NC(=O)[C@H](C(C)C)NC(=O)[C@H](CC(=O)O)NC(=O)[C@H](CC2CCOCC2)NC(=O)[C@H](CC2CCN(CC(=O)O)CC2)NC(=O)CNC(=O)[C@H](C(C)(C)C)NC1=O [compound 525, Ac-hLeu-Y-C-Tbg-G-Pip(CH2COOH)Ala-ThpA-D-V-Y-C-5FW-[(2S, 3S)beta-Me-Phe]-hydroxyVal-dLys(hGlu-DOTA)-COOH] (Ac-[hLeu]YC[Tle]G[Ala(1-CH2CO2H-4-piperidyl)][Ala(4-THP)]DVYC[Trp(5-F)][X1][Val(3-OH)][dK]([Aad-DOTA])-OH; disulfide 3-11) |  | < 1 nM |
| CC(=O)N[C@@H](CCC(C)C)C(=O)N[C@@H](Cc1ccc(O)cc1)C(=O)N[C@H]1CSSC[C@@H](C(=O)N[C@@H](Cc2c[nH]c3ccc(F)cc23)C(=O)N(C)[C@@H](Cc2ccccc2)C(=O)N[C@H](C(=O)N[C@H](CCCCNC(=O)CN2CCN(CC(=O)O)CCN(CC(=O)O)CCN(CC(=O)O)CC2)C(N)=O)[C@@H](C)O)NC(=O)[C@H](Cc2ccc(O)cc2)NC(=O)[C@H](C(C)C)NC(=O)[C@H](CC(=O)O)NC(=O)[C@H](Cc2ccc(O)cc2)NC(=O)[C@H](CCCCN)NC(=O)CNC(=O)[C@H](C(C)C)NC1=O [compound 205, Ac-hLeu-Y-C-V-G-K-Y-D-V-Y-C-5FW-NMePhe-Thr-dLys(DOTA)-CONH2] (Ac-[hLeu]YCVGKYDVYC[Trp(5-F)][NMeF]T[dK](DOTA)-NH2; disulfide 3-11) | 1 to 10 nM |  |
| CC(=O)N[C@@H](CCC(C)C)C(=O)N[C@@H](Cc1ccc(O)cc1)C(=O)N[C@H]1CSSC[C@@H](C(=O)N[C@@H](Cc2c[nH]c3ccccc23)C(=O)N[C@@H](Cc2ccccc2)C(=O)N[C@H](C(=O)N[C@H](CCCCNC(=O)CN2CCN(CC(=O)O)CCN(CC(=O)O)CCN(CC(=O)O)CC2)C(N)=O)[C@@H](C)O)NC(=O)[C@H](Cc2ccc(O)cc2)NC(=O)[C@H](C(C)C)NC(=O)[C@H](CC(=O)O)NC(=O)[C@H](Cc2ccc(C(=O)O)cc2)NC(=O)[C@H](CCCCN)NC(=O)CNC(=O)[C@H](C(C)(C)C)NC1=O [compound 139, Ac-hLeu-Y-C-Tbg-G-K-4COOHPhe-D-V-Y-C-W-F-Thr-dLys(DOTA)-CONH2] (Ac-[hLeu]YC[Tle]GK[Phe(4-COOH)]DVYCWFT[dK](DOTA)-NH2; disulfide 3-11) | < 1 nM |  |
| CC(=O)N[C@@H](CCC(C)C)C(=O)N[C@@H](Cc1ccc(O)cc1)C(=O)N[C@H]1CSSC[C@@H](C(=O)N[C@@H](Cc2c[nH]c3ccc(F)cc23)C(=O)N[C@@H](Cc2ccccc2)C(=O)N[C@H](C(=O)N[C@H](CCCCNC(=O)CN2CCN(CC(=O)O)CCN(CC(=O)O)CCN(CC(=O)O)CC2)C(=O)O)C(C)(C)O)NC(=O)[C@H](Cc2ccc(O)cc2)NC(=O)[C@H](C(C)C)NC(=O)[C@H](CC(=O)O)NC(=O)[C@H](CC2CCOCC2)NC(=O)[C@H](CCCCN)NC(=O)CN(C)C(=O)[C@H](C(C)C)NC1=O [compound 347, Ac-hLeu-Y-C-V-Sar-K-ThpA-D-V-Y-C-5FW-F-hydroxyVal-dLys(DOTA)-COOH] (Ac-[hLeu]YCV[Sar]K[Ala(4-THP)]DVYC[Trp(5-F)]F[Val(3-OH)][dK](DOTA)-OH; disulfide 3-11) |  | < 1 nM |
| CC[C@H](C)[C@@H]1NC(=O)[C@@H](NC(=O)[C@H](Cc2ccc(O)cc2)NC(=O)[C@H](CCC(C)C)NC(C)=O)CSSC[C@@H](C(=O)N[C@@H](Cc2c[nH]c3ccc(F)cc23)C(=O)N[C@@H](Cc2ccccc2)C(=O)N[C@H](C(=O)O)C(C)(C)O)NC(=O)[C@H](Cc2ccc(O)cc2)NC(=O)[C@H](C(C)C)NC(=O)[C@H](CC(=O)O)NC(=O)[C@H](CC2CCNCC2)NC(=O)[C@H](CCCCNC(=O)CN2CCN(CC(=O)O)CCN(CC(=O)O)CCN(CC(=O)O)CC2)NC(=O)CNC1=O [compound 323, Ac-hLeu-Y-C-Ile-G-Lys(DOTA)-PipAla-D-V-Y-C-5FW-F-hydroxyVal-COOH] (Ac-[hLeu]YCIGK(DOTA)[Ala(piperidin-4-yl)]DVYC[Trp(5-F)]F[Val(3-OH)]-OH; disulfide 3-11) |  | 1 to 10 nM |
| CC(=O)N[C@@H](CCC(C)C)C(=O)N[C@@H](Cc1ccc(O)cc1)C(=O)N[C@H]1CSSC[C@@H](C(=O)N[C@@H](Cc2cccc3ccccc23)C(=O)N[C@@H](Cc2ccccc2)C(=O)N[C@H](C(=O)N[C@H](CCCCNC(=O)CN2CCN(CC(=O)O)CCN(CC(=O)O)CCN(CC(=O)O)CC2)C(=O)O)C(C)(C)O)NC(=O)[C@H](Cc2ccc(O)cc2)NC(=O)[C@H](C(C)C)NC(=O)[C@H](CC(=O)O)NC(=O)[C@H](CC2CCOCC2)NC(=O)[C@H](CCN)NC(=O)CNC(=O)[C@H](C(C)(C)C)NC1=O [compound 435, Ac-hLeu-Y-C-Tbg-G-Dab-ThpA-D-V-Y-C-1Nal-F-hydroxyVal-dLys(DOTA)-COOH] (Ac-[hLeu]YC[Tle]G[Dab][Ala(4-THP)]DVYC[1Nal]F[Val(3-OH)][dK](DOTA)-OH; disulfide 3-11) |  | < 1 nM |
